Source: US20240066089A1, “ARTOCARPUS HETEROPHYLLUS COMPOSITION AND METHOD OF PROMOTING URINARY TRACT HEALTH” (priority 2022, published 2024)
In brackets after ≈: the same amount, converted by molar mass.

Assays:
[1] = tested on: testosterone induced BPH model rats; assay: Antioxidant activity in prostate tissue of BPH model rats (SOD, catalase, GSH, glutathione reductase); type: in vivo, Wistar rats; settings: Finasteride 1 mg/kg, in comparison with BPH group (p<0.001)
[2] = target: 5-alpha-reductase; assay: In vitro 5-alpha-reductase assay (NADPH absorbance at 340 nm, liver S9 fraction); type: biochemical; settings: 20 μg liver S9 fraction, 6 minutes at 37° C., Finasteride 20-70 ng/mL
Description: In vitro 5-alpha-reductase assay was performed according to Sun et al. (1998) with some modifications. NADPH has characteristic absorbance at 340 nm, and the absorbance spectrum may be used to measure the decline in NADPH concentration as a measure of enzyme activity. Briefly, the reaction mixture contained 40 mM phosphate buffer pH 7.0, 93 μM NADPH, 2.265 μM testosterone and 20 μg liver S9 fraction with or without different concentrations of the extract (2-6 μg/mL) or reference compound Finasteride (20-70 ng/mL), incubated for 6 minutes at 37° C. The absorbance was read at 340 nm in UV-visible spectrophotometer. IC50 values were determined for the extract and Finasteride.

[3] = tested on: testosterone induced BPH model rats; assay: Prostate growth in testosterone-induced BPH model rats; type: in vivo, Wistar rats; settings: 28 days; for Growth inhibition (%): prostate growth, Fina group, 1 mg/kg, mean ± SD n = 6
[4] = tested on: testosterone induced BPH model rats; assay: Histopathological examination of prostate tissue of BPH model rats; type: in vivo, Wistar rats; settings: H&E stained sections

CC(C)(C)NC(=O)[C@H]1CC[C@H]2[C@@H]3CC[C@H]4NC(=O)C=C[C@]4(C)[C@H]3CC[C@]12C [Finasteride]
SOD activity [1]: significantly increased
IC50 value, 5-alpha-reductase activity [2]: 0.0632 µg/mL (≈ 0.17 µM)
prostate weights ([3]; in comparison with BPH control (p<0.001)): reduced significantly
Growth inhibition (%) [3]: 90.22%
Growth inhibition (%) ([3]; listed as Fina): 90.22 ± 10.85%
pathological changes (hyperplastic patterns) in prostate tissue [4]: not evident
